# Data: patent publication US7371834B2, “Apoptosis-inducing factor” (Amgen Inc., priority 1998, dated 2008)
# Peptide text beside a SMILES is read from it. * marks the point of attachment. Cbz = O=C(OCc1ccccc1)*; CH2F = FC*
# How the values were obtained:
# HeLa nuclei = test: Pulse field gel electrophoresis of DNA from AIF-treated HeLa nuclei; type: biochemical; settings: 90 min with 100 ng AIF; 200 μM p-chloromercuryphenylsulfonic acid, 200 μM Z-VAD.fmk, 5 mM EDTA
# Procedure: In addition, each nuclear preparation was assessed for the frequency of hypoploid nuclei as in A.
# (§1) 2B4.11 T cell hybridoma cells stably transfected with a SFFV.neo vector containing the human bcl-2 gene or the neomycin resistance gene (Neo) only [Susin et al., J. Exp. Med. 184:1331-1342 (1996)] were subjected to mechanical lysis and differential centrifugation for the subsequent recovery of nuclei, mitochondria, and organelle-free cytosols [Liu et al. Cell 86:147-157 (1996)]. Submitochondrial fractionation of mouse liver mitochondria was controlled by the determination of suitable marker enzymes [Susin et al., J. Exp. Med. 186:25-37 (1997); Pedersen et al., Meth. Cell Biol. 20:411-481 (1978)]. Purified HeLa cell nuclei were exposed to different preparations of AIF, and nuclear apoptosis was quantitated by staining with DNA-intercalating propidium iodide and cytofluorometric determination of DNA content [Susin et al., J. Exp. Med. 186:25-37 (1997)]. Alternatively, nuclei were stained with Hoechst 33342 dye or subjected to DNA extraction and pulse field gel electrophoresis. […] The release of cytochrome c and caspase-9 into the supernatant was measured by immunoblot using a monoclonal anti-cytochrome c antibody (7H8.2C12, Pharmingen), or a rabbit antibody directed against the large subunit of caspase-9 (Hazelton Research Products Inc., Denver, Pa.).
# [1] = system: purified rat liver mitochondria; test: Large amplitude swelling of purified mitochondria; type: biochemical; settings: Z-VAD.fmk 100-200 μM
# Procedure: Purified rat liver mitochondria were monitored continuously for large amplitude swelling. Arrows indicate the addition of Ca^2+(200 μM; positive control), AIF (100 ng/ml), cytosol (100 μg protein per ml), and/or Z-VAD.fmk (100 μM, pre-added to the cytosol/AIF mixture). Note that only the combined addition of AIF plus cytosol (right panel) causes mitochondrial swelling.
# as §1, with “Submitochondrial fractionation of mouse liver mitochondria was controlled by the determination of suitable marker enzymes [Susin et al., J. Exp. Med. 186:25-37 (1997); Pedersen et al., Meth. Cell Biol. 20:411-481 (1978)].” left out, “(1997)].” for “(1997)]. Alternatively, nuclei were stained with Hoechst 33342 dye or subjected to DNA extraction and pulse field gel electrophoresis.”
# isolated mitochondria = test: Release of cytochrome c and caspase-9 from isolated mitochondria (immunoblot of supernatants); type: biochemical, rat; settings: rec. AIF+cytosol+Z-VAD.fmk
# Procedure: Isolated mitochondria were subjected to osmotic lysis (1) or treated as in A (15 min) with buffer only (2), rec. AIF (3), cytosol (4), rec. AIF+cytosol (5), or rec. AIF+cytosol+Z-VAD.fmk (6) and their supernatants were subjected to immunoblot analysis of cytochrome c and caspase-9.
# as §1, with “Cell Biol. 20:411-481 (1978)].” left out, “(1997)].” for “(1997)]. Alternatively, nuclei were stained with Hoechst 33342 dye or subjected to DNA extraction and pulse field gel electrophoresis.”
# caspase = test: Cleavage of caspase substrate by mitochondrial supernatants; type: biochemical
# Procedure: The same mitochondrial supernatants as in FIG. 3F were tested for their capacity to cleave the caspase substrate Z-VAD.afc, leading to the generation of the fluorochrome afc. The 100% value refers to the enzymatic activity obtained by osmotic lysis of mitochondria
# Rat-1 cells [2] = test: Microinjection into the cytoplasm of Rat-1 cells, quantitation of apoptosis; type: cell-based; settings: 100 μM Z-VAD.fmk
# Procedure: FIGS. 4A-4D show the effects of AIF on intact cells. […] Buffer only or recombinant AIF (10 μM) were injected into the cytoplasm of Rat-1 cells, which were cultured for 90 min in the absence or presence of 100 μM Z-VAD.fmk (added 15 min before injection). Microinjected cells could be identified because the injectate contained FITC-dextran (green fluorescence not shown). Representative (three independent experiments, 100-200 microinjected cells per session) microphotographs of viable cells stained with the DYm-sensitive dye CMXRos and Hoechst 33342 (as in FIG. 2E., upper panels) or Annexin-V, which labels surface-exposed phosphatidylserine residues (red fluorescence in lower panels).
# (§2) Rat-1 fibroblast cells were microinjected (pressure 150 hPa; 0.2 sec; Marzo et al., Science 281:2027-2031 (1998)) with buffer only, atractyloside (50 μM), dialyzed antisera, AIF-derived peptides (100 μM), horse cytochrome c (Sigma), or the indicated dose of recombinant mAIF. The caspase inhibitor Z-VAD.fmk (100 μM; Bachem, Basel Switzerland) was added to the culture medium 30 min before microinjection into the cytoplasm (pressure 150 hPa; 0.2 sec). […] Microinjected viable cells (100-200 per session, two to three independent sessions of injection) were identified by inclusion of 0.25% (w:v) FITC-dextran (green fluorescence) in the injectate. Only the blue or red fluorescence was recorded. […]
# Rat-1 cells [3] = test: Microinjection of anti-AIF antiserum into Rat-1 cells treated with atractyloside or staurosporin; type: cell-based; settings: for retention of DYm-sensitive dye CMXRos by cells: atractyloside 50 μM injected, staurosporin 1 μM, 120 min
# Procedure: Rat-1 cells were microinjected with atractyloside (ATR, 50 μM) alone, or atractyloside diluted in control serum, anti-AIF antiserum, and/or 100 μM AIF-derived immunogenic peptides. 180 min after microinjection, cells were stained with Hoechst 33342 and CMXRos (as in FIG. 4A, upper panel). Alternatively, cells were cultured for 120 min with staurosporin (1 μM, as in FIGS. 2C-2E), added to the culture medium after microinjection of control antiserum or anti-AIF.
# Rat-1 fibroblast cells were microinjected (pressure 150 hPa; 0.2 sec; Marzo et al., Science 281:2027-2031 (1998)) with buffer only, atractyloside (50 μM), dialyzed antisera, AIF-derived peptides (100 μM), horse cytochrome c (Sigma), or the indicated dose of recombinant mAIF. The caspase inhibitor Z-VAD.fmk (100 μM; Bachem, Basel Switzerland) was added to the culture medium 30 min before microinjection into the cytoplasm (pressure 150 hPa; 0.2 sec). […] Microinjected viable cells (100-200 per session, two to three independent sessions of injection) were identified by inclusion of 0.25% (w:v) FITC-dextran (green fluorescence) in the injectate. Only the blue or red fluorescence was recorded. Transfection of Jurkat T lymphoma cells was performed using AIF cloned in pcDNA3.1 (Invitrogen) vector and Lipofectamine® (Gibco Life Technologies). Cytofluorometric analyses of apoptosis-associated parameters were performed as described [Kroemer et al., “Detection of apoptosis and apoptosis associated alterations,” “The Immunology Methods Manual” (Lefkovitz, R. Ed.); Academic Press, Chapter 14.2., pp. 1111-1125 (1997)].
# mouse liver mitochondria = test: AIF liberation from mitochondria by PT pore opening (Western blot of supernatants); type: biochemical; settings: 5 mM atractyloside, 200 μM Ca2+
# Procedure: FIGS. 2A-2F show the submitochondrial and subcellular distribution of AIF in normal and apoptotic cells. […] Western blots were performed on total mouse liver mitochondrion lysate (1), proteins from the matrix (2), inner membrane (3), intermembrane space (4), outer membrane (5), the supernatant of untreated mitochondria (6), or that of mitochondria treated with 5 mM atractyloside (7), 200 μM Ca^2+ (8), 1 μM cyclosporin A (9), atractyloside+CsA (10), or Ca^2++cyclosporin A (11). In addition, the supernatant of atractyloside-treated mitochondria was sham-immunodepleted using a pre-immune serum (12), or AIF-immunodepleted in the absence (13) or presence (14) of AIF-derived immunogenic peptides (see Example 2, below) capable of blocking the AIF antiserum. Aliquots of each preparation were tested for their capacity to induce nuclear hypoploidy in isolated HeLa nuclei.
# Rat-1 fibroblasts = test: Nuclear phenotype of staurosporine-treated Rat-1 fibroblasts; type: cell-based; settings: Neo cells; staurosporine 1 μM, 2 h
# Text: In Neo cells, staurosporine treatment leads to the generation of two phenotypes, one with partial chromatin condensation (˜80% of cells, stage I), and another with more advanced chromatin condensation and nuclear fragmentation (˜20% of cells, stage II), as identified by phase contrast microscopy or counter-staining with Hoechst 33342 (not shown). Arrow heads are placed in the center of the nucleus.
# Specifically, Rabbit antiserum was generated against a mixture of 3 peptides derived from the mAIF amino acid sequence (amino acid nos. 151-170, 166-185, 181-200, coupled to KLH). This antiserum (ELISA titer ˜10.000) was used in immunoblots (1/2000) and on paraformaldehyde/picrylic acid-fixed [Bossy-Wetzel et al., EMBO J. 17:37-49 (1998)] […] Cytochrome c was detected by immunofluorescence (mAb 6H2.B4 from Pharmingen) in fixed Rat-1 cells transfected with a control vector (Neo) or with human Bcl-2 [Zhu et al., EMBO J. 15:4130-4141 (1996)] as described [Bossy-Wetzel et al., EMBO J. 17, 37-49 (1998)], whereas the DYm sensitive dye CMXRos (100 nM, red fluorescence) was used on live cells [Marzo et al., Science 281, 2027-2031 (1998)]. Cells were counterstained with the Hoechst 33342 dye (1 μM, blue fluorescence). […]
# Jurkat cells = test: Transfection-enforced AIF overexpression in Jurkat cells; type: cell-based; settings: 24 hours after transfection
# Procedure: Jurkat cells were transiently transfected with pcDNA3.1 vector only (control) or mouse AIF cDNA (under the control of a cytomegalovirus promoter, see pcDNA3.1 vector from Invitrogen). After 24 hours of culture, cells were stained with the indicated fluorochromes to determine the frequency of apoptosis-associated alterations: loss of DYm (fluorochrome: DiOC(6)3), phosphatidylserine exposure (fluorochrome: Annexin V-FITC), or loss of nuclear DNA (fluorochrome: propidium iodide, PI, after ethanol permeabilization). Numbers refer to the percentage of cells bearing apoptotic characteristics. Results are representative of 3 different experiments.
# as §2
molecule,measurement,setting,value
O=C(O)CN(CCN(CC(=O)O)CC(=O)O)CC(=O)O [EDTA],inhibition of AIF-induced large-scale DNA fragmentation,HeLa nuclei,inhibited
COC(=O)C[C@H](NC(=O)[C@H](C)NC(=O)[C@@H](NC(=O)OCc1ccccc1)C(C)C)C(=O)CF [Z-VAD.fmk] (Cbz-Val-Ala-Asp(OMe)-CH2F),prevention of AIF effects on isolated nuclei or on mitochondria,[1],"None of these AIF effects, either on isolated nuclei or on mitochondria, is prevented"
same,inhibition of AIF-induced release of caspase-9,isolated mitochondria,does not inhibit the release of caspase-9 but rather interferes with its proteolytic activation
same,inhibition of caspase-substrate-cleaving activity in supernatant of mitochondria treated with AIF plus cytosol,caspase,Z-VAD.fmk-inhibitable
same,inhibition of effects mediated by microinjected AIF,Rat-1 cells [2],None of the effects mediated by microinjected AIF is inhibited
same,prevention of cytochrome c-induced apoptosis,Rat-1 cells [2]; microinjected cytochrome c,"succeeds in preventing cytochrome c-induced, caspase-dependent apoptosis"
C=C1[C@@H]2CC[C@H]3[C@]4(C)C[C@H](O[C@@H]5O[C@H](CO)[C@@H](OS(=O)(=O)O)[C@H](OS(=O)(=O)O)[C@H]5OC(=O)CC(C)C)C[C@@H](C(=O)O)[C@H]4CC[C@]3(C2)[C@H]1O [atractyloside],retention of DYm-sensitive dye CMXRos by cells,Rat-1 cells [3],do not retain the DYm-sensitive dye CMXRos
same,release of 57 kDa AIF protein from mitochondria,mouse liver mitochondria,released upon PT pore opening
[Ca+2] [calcium],release of 57 kDa AIF protein from mitochondria,mouse liver mitochondria,released upon PT pore opening
O=S(=O)(O)c1cc[c]([Hg][Cl])cc1 [p-chloromercuryphenylsulfonic acid],inhibition of AIF-induced large-scale DNA fragmentation,HeLa nuclei,inhibited
CN[C@@H]1C[C@H]2O[C@@](C)([C@@H]1OC)n1c3ccccc3c3c4c(c5c6ccccc6n2c5c31)C(=O)NC4 [staurosporine],retention of DYm-sensitive dye CMXRos by cells,Rat-1 cells [3],do not retain the DYm-sensitive dye CMXRos
same,cells with more advanced chromatin condensation and nuclear fragmentation (stage II),Rat-1 fibroblasts,~20 % of cells
same,cells with partial chromatin condensation (stage I),Rat-1 fibroblasts,~80 % of cells
CC(C)(C)OO [tert-butylhydroperoxide],release of 57 kDa AIF protein from mitochondria,mouse liver mitochondria,released upon PT pore opening
"immunogenic peptides: 3 peptides derived from the mAIF amino acid sequence (amino acid nos. 151-170, 166-185, 181-200) (peptide 1 LLIGGGTAAFAAARSIRARD; peptide 2 IRARDPGARVLIVSEDPELP; peptide 3 DPELPYMRPPLSKELWFSDD)",inhibitory effect of AIF-specific antibody when co-injected with excess immunogenic peptides,Rat-1 cells [3]; 100 μM AIF-derived immunogenic peptides,No such inhibitory effect is observed
"wild type AIF: AIF overexpressed in Jurkat cells by transient transfection of mouse AIF cDNA in pcDNA3.1 (protein, UniProt Q9Z0X1 1-612, looked up, full-length) MFRCGGLAGAFKQKLVPLVRTVYVQRPKQRNRLPGNLFQQWRVPLELQMARQMASSGSSGGKMDNSVLVLIVGLSTIGAGAYAYKTIKEDQKRYNERVMGLGLSPEEKQRRAIASATEGGSVPQIRAPSHVPFLLIGGGTAAFAAARSIRARDPGARVLIVSEDPELPYMRPPLSKELWFSDDPNVTKTLQFRQWNGKERSIYFQPPSFYVSAQDLPNIENGGVAVLTGKKVVHLDVRGNMVKLNDGSQITFEKCLIATGGTPRSLSAIDRAGAEVKSRTTLFRKIGDFRALEKISREVKSITVIGGGFLGSELACALGRKSQASGIEVIQLFPEKGNMGKILPQYLSNWTMEKVKREGVKVMPNAIVQSVGVSGGRLLIKLKDGRKVETDHIVTAVGLEPNVELAKTGGLEIDSDFGGFRVNAELQARSNIWVAGDAACFYDIKLGRRRVEHHDHAVVSGRLAGENMTGAAKPYWHQSMFWSDLGPDVGYEAIGLVDSSLPTVGVFAKATAQDNPKSATEQSGTGIRSESETESEASEITIPPSAPAVPQVPVEGEDYGKGVIFYLRDKVVVGIVLWNVFNRMPIARKIIKDGEQHEDLNEVAKLFNIHED",apoptosis-associated alterations after AIF overexpression,Jurkat cells,"induces DYm collapse, phosphatidylserine exposure, and hypoploidy"
